Earlier results, collected in paper PMC10905719, “Accelerating Antimicrobial Peptide Discovery for WHO Priority Pathogens through Predictive and Interpretable Machine Learning Models” (ACS Omega, 2024).

How the values were obtained:
[1] = tested on: Erythrocyte
Excerpt: page 8: 2 VGALAGFLYWHFLRKGTKM NewAMP_S Hm-AMP10 VGK S. aureus ST 88 248.00 NewAMP_S hHK-18 TGKASQFFGLM-NH S. aureus ATCC 151.63 2 25923 NewAMP_S AH-18 LKKWTGKASQFFGLM-NH S. aureus ATCC 222.71 2 25923 NewAMP_S AH-28 LKKWTLKASQFFGLM-NH S. aureus ATCC 229.89 2 25923 NewAMP_S AH-38 LKKWLKKWTGKASQFFGLM- S. aureus ATCC 9.18 NH2 25923 NewAMP_S AH-48 LKKWLKKWTLKASQFFGLM- S. aureus ATCC 4.70 NH2 25923 Sub-set Name Sequence Erythrocyte MHC(µg/mL) (% hemolysis) NewAMP_HE HJH-18 KLLKHKLLVTLA Erythrocyte 382.72a NewAMP_HE HJH-28 KLLKHKLLVTLR Erythrocyte 382.72a NewAMP_HE HJH-38 KLLKRKLLVTLR Erythrocyte 382 ...

[2] = tested on: S. aureus ATCC 6538P; details: NewAMP_S, ref SI 3
Excerpt: page 7: 29213 8 S. aureus ATCC NewAMP_S HJH-6 KKLLKKLLRLLKVLLR 29213 0.75 6 GWGAKRWGKRGWKWKRH NewAMP_S GW18 W-COONH S. aureus ATCC 6538 3.12 2 3 […] S. aureus ATCC NewAMP_S RaCa-2 KC 6538P 2-4 3 S. aureus ATCC NewAMP_S RaCa-4 FLTFPGMTFGKLLGK 6538P No inhibition 3 […] S. aureus ATCC NewAMP_S RaCa-6 GKQ 6538P No inhibition 3 […] S. aureus ATCC NewAMP_S RaCa-7 SVGN 6538P No inhibition 3 S. aureus ATCC NewAMP_S RaCa-8 FPAIICKVSKNC 6538P No inhibition 3 S. aureus ATCC NewAMP_S RaCa-9 FYFPVSRKFGGK 6538P No inhibition 3 […] S ...

[3] = tested on: P. aeruginosa ATCC 10148; details: NewAMP_P, ref SI 3
Excerpt: page 6: NH2 8 LKKWLKKWTPKASQFFGLM- NewAMP_E AH-5 NH E. coli ATCC 25922 4.67 2 3 […] P. aeruginosa ATCC NewAMP_P RaCa-2 KC 10148 128 3 P. aeruginosa ATCC NewAMP_P RaCa-4 FLTFPGMTFGKLLGK 10148 No inhibition 3 […] P. aeruginosa ATCC NewAMP_P RaCa-6 GKQ 10148 No inhibition 3 […] P. aeruginosa ATCC NewAMP_P RaCa-7 SVGN 10148 No inhibition 3 P. aeruginosa ATCC NewAMP_P RaCa-8 FPAIICKVSKNC 10148 No inhibition 3 P. aeruginosa ATCC NewAMP_P RaCa-9 FYFPVSRKFGGK 10148 No inhibition 3 […] P. aeruginosa ATCC NewAMP_P RaCa-10 LEII 1 ...

[4] = tested on: E. coli ATCC 25922; details: NewAMP_E, ref SI 3
Excerpt: page 5: Table S3 NewAMP database1-9 Sub-set Name Sequence Bacterial Strain MIC (µg/mL) NewAMP_E HJH-58 KKLLRLLKVLLR E. coli ATCC 25922 1.5 3 […] NewAMP_E RaCa-2 KC E. coli ATCC 25922 4-16 3 […] NewAMP_E RaCa-6 GKQ E. coli ATCC 25922 No inhibition NewAMP_E RaCa-83 FPAIICKVSKNC E. coli ATCC 25922 No inhibition 3 […] NewAMP_E RaCa-10 LEII E. coli ATCC 25922 No inhibition 5 […] NewAMP_E Hydr_2 KLL-NH E. coli ATCC 25922 512 2 5 […] NewAMP_E Hydr_3 KAG-NH E. coli ATCC 25922 512 2 NewAMP_E Hydr_45 FLPLIGRVFSGIL ... || page 6: NH2 8 LKKWLKKWTPKASQFFGLM- NewAMP_E AH-5 NH E. coli ATCC 25922 4.67 2 3 […] P. aeruginosa ATCC NewAMP_P RaCa-2 KC 10148 128 3 P. aeruginosa ATCC NewAMP_P RaCa-4 FLTFPGMTFGKLLGK 10148 No inhibition 3 […] P. aeruginosa ATCC NewAMP_P RaCa-6 GKQ 10148 No inhibition 3 […] P. aeruginosa ATCC NewAMP_P RaCa-7 SVGN 10148 No inhibition 3 P. aeruginosa ATCC NewAMP_P RaCa-8 FPAIICKVSKNC 10148 No inhibition 3 P. aeruginosa ATCC NewAMP_P RaCa-9 FYFPVSRKFGGK 10148 No inhibition 3 […] P. aeruginosa ATCC NewAMP_P RaCa-10 LEII 1 ...

Row | Sequence | % hemolysis at MHC [1] | MIC [2] | MIC [3] | MIC [4]
1 | FILYGLIRFGRLLRK [Hm-AMP4, newly published AMP of the NewAMP test set] | 77% |  |  | 
2 | FLTFPGMTFGKLLGK [RaCa-4, newly published AMP of the NewAMP test set] |  | No inhibition | No inhibition | 
3 | FPAIICKVSKNC [RaCa-8, newly published AMP of the NewAMP test set] |  | No inhibition | No inhibition | No inhibition
4 | FYFPVSRKFGGK [RaCa-9, newly published AMP of the NewAMP test set] |  | No inhibition | No inhibition | 
5 | KKLLKKLLRLLKVLLR [HJH-6, newly published AMP of the NewAMP test set] | 90% |  |  | 
6 | SNRDFFKVNIFRLCG [RaCa-11, newly published AMP of the NewAMP test set] |  | No inhibition | No inhibition | 
